Read-outs that look alike come from different tables or passages of the source.

Common to all, as to format: biochemical
One experiment concerns the target p110α/p85α (Homo sapiens (Human), UniProt P42336). Briefly: PI 3-Kinase (human) HTRF assay, p110α/p85α. (Time-resolved FRET reads energy transfer from a long-lived donor to a nearby acceptor.)
The target of a further experiment is p110β/p85α (Homo sapiens (Human), UniProt P42338). As to the kind of experiment: PI 3-Kinase (human) HTRF assay, p110β/p85α.
Sequence of p110β/p85α (P42338 whole entry): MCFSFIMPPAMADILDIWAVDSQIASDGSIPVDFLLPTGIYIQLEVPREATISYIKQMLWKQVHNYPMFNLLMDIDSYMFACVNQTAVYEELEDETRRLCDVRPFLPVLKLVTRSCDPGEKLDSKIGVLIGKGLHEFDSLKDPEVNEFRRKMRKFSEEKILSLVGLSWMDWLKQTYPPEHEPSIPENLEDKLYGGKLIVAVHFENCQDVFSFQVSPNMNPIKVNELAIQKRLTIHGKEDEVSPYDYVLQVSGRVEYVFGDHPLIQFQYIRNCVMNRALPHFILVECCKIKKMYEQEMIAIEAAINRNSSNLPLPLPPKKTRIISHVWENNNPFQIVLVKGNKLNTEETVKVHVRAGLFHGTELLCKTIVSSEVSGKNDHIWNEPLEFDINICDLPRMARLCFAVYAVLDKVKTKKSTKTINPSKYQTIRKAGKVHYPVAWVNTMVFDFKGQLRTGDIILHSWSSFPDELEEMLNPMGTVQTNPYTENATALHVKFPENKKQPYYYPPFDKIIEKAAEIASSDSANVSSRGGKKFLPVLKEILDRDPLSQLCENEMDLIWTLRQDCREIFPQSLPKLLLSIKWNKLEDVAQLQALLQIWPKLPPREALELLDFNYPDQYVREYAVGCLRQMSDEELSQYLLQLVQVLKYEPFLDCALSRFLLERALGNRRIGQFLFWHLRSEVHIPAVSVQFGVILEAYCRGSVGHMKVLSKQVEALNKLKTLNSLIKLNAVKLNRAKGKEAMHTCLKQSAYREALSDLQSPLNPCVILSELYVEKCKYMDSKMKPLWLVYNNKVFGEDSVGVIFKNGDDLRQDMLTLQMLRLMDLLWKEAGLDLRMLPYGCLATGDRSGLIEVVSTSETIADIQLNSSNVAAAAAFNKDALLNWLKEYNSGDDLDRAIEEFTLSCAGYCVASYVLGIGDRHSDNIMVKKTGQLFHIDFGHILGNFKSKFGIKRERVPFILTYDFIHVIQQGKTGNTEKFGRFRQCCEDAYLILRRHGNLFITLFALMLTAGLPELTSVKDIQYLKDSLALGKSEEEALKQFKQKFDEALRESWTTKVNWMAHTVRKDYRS
Sequence of p110β/p85α (P27986 whole entry partner): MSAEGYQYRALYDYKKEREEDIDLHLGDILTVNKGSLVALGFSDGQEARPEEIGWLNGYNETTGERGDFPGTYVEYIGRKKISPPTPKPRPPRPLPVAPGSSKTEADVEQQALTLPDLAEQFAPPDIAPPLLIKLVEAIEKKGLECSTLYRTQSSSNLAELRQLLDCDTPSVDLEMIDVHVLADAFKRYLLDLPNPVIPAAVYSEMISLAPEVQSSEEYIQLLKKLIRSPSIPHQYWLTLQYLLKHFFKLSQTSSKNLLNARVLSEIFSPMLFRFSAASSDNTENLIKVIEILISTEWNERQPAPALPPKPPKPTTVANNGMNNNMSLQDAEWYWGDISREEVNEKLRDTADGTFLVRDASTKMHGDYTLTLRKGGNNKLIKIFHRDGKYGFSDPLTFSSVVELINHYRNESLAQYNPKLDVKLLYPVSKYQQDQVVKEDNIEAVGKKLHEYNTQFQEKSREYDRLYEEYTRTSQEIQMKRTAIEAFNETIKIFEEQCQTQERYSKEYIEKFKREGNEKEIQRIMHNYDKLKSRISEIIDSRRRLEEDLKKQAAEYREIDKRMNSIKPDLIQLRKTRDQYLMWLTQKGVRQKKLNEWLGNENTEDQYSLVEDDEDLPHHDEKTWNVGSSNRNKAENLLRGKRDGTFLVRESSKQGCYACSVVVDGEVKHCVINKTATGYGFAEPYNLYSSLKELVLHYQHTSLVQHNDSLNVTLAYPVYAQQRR
The target in the next experiment is p110δ/p85α (Homo sapiens (Human), UniProt O00329). As to the kind of experiment: PI 3-Kinase (human) HTRF assay, p110δ/p85α.
Sequence of p110δ/p85α (O00329 whole entry): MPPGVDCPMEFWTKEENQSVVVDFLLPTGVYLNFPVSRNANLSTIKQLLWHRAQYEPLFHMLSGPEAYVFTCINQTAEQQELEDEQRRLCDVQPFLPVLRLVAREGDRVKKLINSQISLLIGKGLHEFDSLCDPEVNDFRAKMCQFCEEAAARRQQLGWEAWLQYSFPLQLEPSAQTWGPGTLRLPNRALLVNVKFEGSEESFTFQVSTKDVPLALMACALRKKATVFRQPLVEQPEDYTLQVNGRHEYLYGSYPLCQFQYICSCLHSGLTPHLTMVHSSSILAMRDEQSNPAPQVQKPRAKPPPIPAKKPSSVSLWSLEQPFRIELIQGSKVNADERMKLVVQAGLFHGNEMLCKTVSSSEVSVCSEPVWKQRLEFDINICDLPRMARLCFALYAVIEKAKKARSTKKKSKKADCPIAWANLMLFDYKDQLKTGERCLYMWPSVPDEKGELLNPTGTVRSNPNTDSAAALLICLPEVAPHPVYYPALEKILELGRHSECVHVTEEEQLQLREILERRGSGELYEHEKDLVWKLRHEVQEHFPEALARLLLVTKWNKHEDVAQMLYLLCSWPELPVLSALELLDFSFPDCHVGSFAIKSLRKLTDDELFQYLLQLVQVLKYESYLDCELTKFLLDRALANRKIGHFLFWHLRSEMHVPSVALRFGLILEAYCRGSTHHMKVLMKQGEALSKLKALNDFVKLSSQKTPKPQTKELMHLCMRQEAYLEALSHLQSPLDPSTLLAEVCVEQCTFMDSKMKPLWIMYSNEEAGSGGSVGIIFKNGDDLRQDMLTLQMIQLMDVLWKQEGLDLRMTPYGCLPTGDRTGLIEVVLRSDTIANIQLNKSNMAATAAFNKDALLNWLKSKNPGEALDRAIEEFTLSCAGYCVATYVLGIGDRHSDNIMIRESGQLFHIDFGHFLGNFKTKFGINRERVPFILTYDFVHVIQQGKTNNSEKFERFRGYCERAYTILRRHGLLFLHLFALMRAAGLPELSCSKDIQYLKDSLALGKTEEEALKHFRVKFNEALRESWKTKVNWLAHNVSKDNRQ
Sequence of p110δ/p85α (P27986 whole entry partner): as the sequence (P27986 whole entry partner) above
A further experiment concerns the target p110γ (Homo sapiens (Human), UniProt P48736). Briefly: PI 3-Kinase (human) HTRF assay, p110γ.
[1] abbreviates: in vitro, read-out: PI3K α IC50.
Where [2] appears, read: in vitro, read-out: PI3K β IC50.
[3] abbreviates: in vitro, read-out: PI3K δ IC50.
Setting [4] is: in vitro, read-out: PI3K γ IC50.

Sequence of p110α/p85α (P42336 whole entry): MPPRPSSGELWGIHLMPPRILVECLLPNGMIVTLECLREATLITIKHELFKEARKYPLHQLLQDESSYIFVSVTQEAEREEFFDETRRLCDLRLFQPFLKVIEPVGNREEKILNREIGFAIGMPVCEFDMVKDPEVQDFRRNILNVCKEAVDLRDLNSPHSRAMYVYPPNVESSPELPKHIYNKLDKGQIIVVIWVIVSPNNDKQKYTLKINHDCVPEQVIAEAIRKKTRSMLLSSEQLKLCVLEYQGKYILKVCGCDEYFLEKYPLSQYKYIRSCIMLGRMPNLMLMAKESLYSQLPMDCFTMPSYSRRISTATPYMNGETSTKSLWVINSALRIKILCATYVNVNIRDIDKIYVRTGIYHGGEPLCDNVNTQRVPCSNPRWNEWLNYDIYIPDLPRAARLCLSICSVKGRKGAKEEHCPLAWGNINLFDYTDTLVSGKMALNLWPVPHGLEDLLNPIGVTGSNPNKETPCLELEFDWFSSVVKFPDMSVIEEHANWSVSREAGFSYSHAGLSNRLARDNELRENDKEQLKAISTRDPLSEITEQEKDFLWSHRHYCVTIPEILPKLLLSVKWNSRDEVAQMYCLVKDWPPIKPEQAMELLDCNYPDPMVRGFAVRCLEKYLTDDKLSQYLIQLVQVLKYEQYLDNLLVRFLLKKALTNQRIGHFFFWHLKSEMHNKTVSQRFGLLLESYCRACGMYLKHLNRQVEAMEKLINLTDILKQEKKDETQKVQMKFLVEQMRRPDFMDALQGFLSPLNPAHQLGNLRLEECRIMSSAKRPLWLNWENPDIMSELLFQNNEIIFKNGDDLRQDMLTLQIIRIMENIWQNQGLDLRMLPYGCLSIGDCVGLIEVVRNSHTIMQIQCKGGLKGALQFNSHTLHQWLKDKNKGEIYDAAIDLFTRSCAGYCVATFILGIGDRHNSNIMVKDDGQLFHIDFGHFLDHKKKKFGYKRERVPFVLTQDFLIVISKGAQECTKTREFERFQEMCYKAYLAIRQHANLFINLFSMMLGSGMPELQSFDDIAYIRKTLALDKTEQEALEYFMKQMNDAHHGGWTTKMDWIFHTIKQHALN
Sequence of p110α/p85α (P27986 whole entry partner): as the sequence (P27986 whole entry partner) above
Sequence of p110γ (P48736 whole entry): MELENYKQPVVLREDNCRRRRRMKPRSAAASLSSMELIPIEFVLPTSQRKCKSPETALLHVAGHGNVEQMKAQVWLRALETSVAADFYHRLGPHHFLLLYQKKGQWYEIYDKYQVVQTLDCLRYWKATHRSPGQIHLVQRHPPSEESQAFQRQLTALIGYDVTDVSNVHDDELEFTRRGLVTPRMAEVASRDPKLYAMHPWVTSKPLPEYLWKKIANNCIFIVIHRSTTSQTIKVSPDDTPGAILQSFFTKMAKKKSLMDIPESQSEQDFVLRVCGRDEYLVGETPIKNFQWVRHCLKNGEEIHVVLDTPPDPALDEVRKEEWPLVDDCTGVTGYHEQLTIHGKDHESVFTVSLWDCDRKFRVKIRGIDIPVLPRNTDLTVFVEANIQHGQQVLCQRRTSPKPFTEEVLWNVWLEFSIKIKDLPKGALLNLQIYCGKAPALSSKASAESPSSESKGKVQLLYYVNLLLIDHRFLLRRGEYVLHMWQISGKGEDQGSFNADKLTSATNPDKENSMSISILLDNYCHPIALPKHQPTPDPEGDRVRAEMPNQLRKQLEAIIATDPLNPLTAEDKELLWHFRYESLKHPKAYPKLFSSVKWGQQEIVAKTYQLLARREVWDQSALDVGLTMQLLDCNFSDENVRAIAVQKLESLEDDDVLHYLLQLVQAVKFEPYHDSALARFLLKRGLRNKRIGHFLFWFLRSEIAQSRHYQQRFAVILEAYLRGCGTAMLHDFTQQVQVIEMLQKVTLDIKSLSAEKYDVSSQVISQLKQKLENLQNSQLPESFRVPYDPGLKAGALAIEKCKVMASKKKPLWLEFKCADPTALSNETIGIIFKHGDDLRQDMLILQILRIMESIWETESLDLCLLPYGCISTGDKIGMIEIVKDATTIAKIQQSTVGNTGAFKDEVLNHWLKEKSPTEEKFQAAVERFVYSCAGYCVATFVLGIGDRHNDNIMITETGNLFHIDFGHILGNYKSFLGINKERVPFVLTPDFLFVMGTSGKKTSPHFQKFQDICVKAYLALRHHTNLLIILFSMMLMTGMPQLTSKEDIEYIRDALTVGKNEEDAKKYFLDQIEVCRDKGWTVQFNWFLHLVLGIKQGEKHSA

On to `Nc1nc2ccc(-c3cc(F)c4oc(N)nc4c3)cc2o1` [compound 433], for which the IC50 (in general, the concentration needed to halve the response being measured) at p110α/p85α (read-out: PI3K α In Vitro IC50) was under 1 µM; at p110β/p85α (read-out: PI3K β In Vitro IC50), under 1 µM; on p110δ/p85α (read-out: PI3K δ In Vitro IC50), under 10 µM; on p110γ (read-out: PI3K γ In Vitro IC50) it was under 0.1 µM.
Consider `CC1CN(c2cnc3ccc(-c4ccc5oc(N)nc5c4)cc3n2)CC(C)N1` (stereo not drawn) [compound 131], for which the half-maximal inhibitory concentration (IC50) at p110α/p85α (read-out: PI3K α IC50), at p110β/p85α (read-out: PI3K β IC50), at p110δ/p85α (read-out: PI3K δ IC50) and on p110γ (read-out: PI3K γ IC50) was under 1 µM in each case.
With `CS(=O)(=O)N1CCN(c2cnc3ccc(-c4ccc5oc(N)nc5c4)cc3n2)CC1` [compound 86], the 50% inhibitory concentration (IC50) on p110α/p85α (read-out: PI3K α IC50) is under 0.1 µM; at p110β/p85α (read-out: PI3K β IC50) it was under 1 µM; on p110δ/p85α (read-out: PI3K δ IC50), under 1 µM; on p110γ (read-out: PI3K γ IC50), under 0.1 µM.
As to `Cc1ccn(C2CN(c3cnc4ccc(-c5ccc6oc(N)nc6c5)cc4n3)C2)n1` [compound 320], the IC50 on p110α/p85α (setting [1]) is under 0.1 µM; at p110β/p85α (setting [2]) it was under 10 µM; at p110δ/p85α (setting [3]), under 10 µM; on p110γ (setting [4]), under 10 µM.
`Nc1nc2cc(-c3ccc4ncc(-c5ccncc5)nc4c3)ccc2o1` [compound 71]: the concentration for half-maximal inhibition (IC50) at p110α/p85α (read-out: PI3K α IC50) was under 0.1 µM; at p110β/p85α (read-out: PI3K β IC50) it was under 10 µM; on p110δ/p85α (read-out: PI3K δ IC50), under 1 µM; at p110γ (read-out: PI3K γ IC50), under 0.1 µM.
As to `CC(=O)Nc1nc(C)c(-c2ccc3oc(N)nc3c2)s1` [compound 312], the IC50 on p110α/p85α (setting [1]) was under 1 µM; on p110β/p85α (setting [2]), under 10 µM; at p110δ/p85α (setting [3]) it was under 1 µM; on p110γ (setting [4]), under 0.1 µM.
For `Nc1nc2cc(-c3ccc4ncc(N5CC(C(=O)N6CCOCC6)C5)nc4c3)ccc2o1` [compound 252], the IC50 on p110β/p85α (setting [2]), on p110δ/p85α (setting [3]) and at p110γ (setting [4]) was under 10 µM in each case.
In the case of `C[C@H]1CN(C2CN(c3cnc4ccc(-c5ccc6oc(N)nc6c5)cc4n3)C2)CCN1` [compound 350], the half-maximal inhibitory concentration (IC50) at p110α/p85α (setting [1]) was under 0.1 µM; on p110β/p85α (setting [2]), under 10 µM; on p110δ/p85α (setting [3]), under 10 µM.
For the compound `Nc1nc2cc(-c3ccc4ncc(N5CCn6cccc6C5)nc4c3)ccc2o1` [compound 394], the half-maximal inhibitory concentration (IC50) at p110α/p85α (setting [1]) was under 0.1 µM; at p110β/p85α (setting [2]) it was under 0.1 µM; on p110δ/p85α (setting [3]), under 1 µM; at p110γ (setting [4]) it was under 0.1 µM.
In the case of `CO[C@H]1CCN(C(=O)c2cnc3ccc(-c4ccc5oc(N)nc5c4)cn23)C1` [compound 463], the half-inhibitory concentration (IC50) on p110α/p85α (read-out: PI3K α In Vitro IC50) was under 0.1 µM; at p110β/p85α (read-out: PI3K β In Vitro IC50), under 10 µM; at p110δ/p85α (read-out: PI3K δ In Vitro IC50), under 10 µM; at p110γ (read-out: PI3K γ In Vitro IC50) it was under 1 µM.
In the case of `Nc1nc2cc(-c3ccc4ncc(N5CC[C@@H](N6CCOCC6)C5)nc4c3)ccc2o1` [compound 376], the half-inhibitory concentration (IC50) was under 0.1 µM on p110α/p85α (setting [1]), under 10 µM on p110β/p85α (setting [2]), under 10 µM at p110δ/p85α (setting [3]) and under 0.1 µM on p110γ (setting [4]).
As to `CN1CCN(c2ncnc3ccc(-c4ccc5oc(N)nc5c4)cc23)CC1` [compound 23], the IC50 is under 0.1 µM on p110α/p85α (read-out: PI3K α IC50), under 1 µM on p110β/p85α (read-out: PI3K β IC50), under 10 µM on p110δ/p85α (read-out: PI3K δ IC50) and under 0.1 µM on p110γ (read-out: PI3K γ IC50).
As for `CCN(CC)C1CN(c2cnc3ccc(-c4ccc5oc(N)nc5c4)cc3n2)C1` [compound 324], the IC50 at p110α/p85α (setting [1]) is under 0.1 µM; at p110β/p85α (setting [2]), under 10 µM; at p110δ/p85α (setting [3]), under 10 µM; on p110γ (setting [4]), under 1 µM.
Turning to `CS(=O)(=O)CCN1CCN(C(=O)c2cnc3ccc(-c4ccc5oc(N)nc5c4)cn23)CC1` [compound 198], the IC50 at p110α/p85α (setting [1]) was under 0.1 µM; on p110β/p85α (setting [2]), under 10 µM; at p110δ/p85α (setting [3]), under 10 µM; on p110γ (setting [4]) it was under 1 µM.
Consider `CCN(CC)CCNc1cnc2ccc(-c3ccc4oc(N)nc4c3)cc2n1` [compound 218], for which the half-inhibitory concentration (IC50) was under 1 µM at p110α/p85α (setting [1]), under 1 µM on p110β/p85α (setting [2]), under 1 µM at p110δ/p85α (setting [3]) and under 10 µM on p110γ (setting [4]).
Consider `Nc1nc2cc(-c3ccc4ncc(C(=O)N5CCC5)n4c3)ccc2o1` [compound 197], for which the IC50 was under 0.1 µM at p110α/p85α (setting [1]), under 10 µM at p110β/p85α (setting [2]), under 10 µM at p110δ/p85α (setting [3]) and under 0.1 µM at p110γ (setting [4]).
As for `CC(C)N1CCC(n2cnc3ccc(-c4cncc(NS(=O)(=O)c5ccc(F)cc5F)c4)cc3c2=O)CC1` [compound 519], the IC50 was under 1 µM at p110α/p85α (read-out: PI3K α In Vitro IC50), under 10 µM on p110β/p85α (read-out: PI3K β In Vitro IC50), under 10 µM at p110δ/p85α (read-out: PI3K δ In Vitro IC50) and under 1 µM on p110γ (read-out: PI3K γ In Vitro IC50).
Take `Nc1nc2cc(-c3ccc4ncc(N[C@H]5CC[C@H](O)CC5)nc4c3)ccc2o1` [compound 128]: the IC50 was under 0.1 µM at p110α/p85α (read-out: PI3K α IC50), under 10 µM on p110β/p85α (read-out: PI3K β IC50), under 0.1 µM on p110δ/p85α (read-out: PI3K δ IC50) and under 0.1 µM at p110γ (read-out: PI3K γ IC50).
With `Cc1cc(-c2ccc3ncc(N4CC(N5CCOCC5)C4)nc3c2)cc2nc(N)oc12` [compound 365], the IC50 at p110α/p85α (setting [1]), at p110β/p85α (setting [2]), at p110δ/p85α (setting [3]) and at p110γ (setting [4]) was under 10 µM in each case.
With `C[C@H]1CN(c2cnc3ccc(-c4ccc5oc(N)nc5c4)cc3n2)CCN1` [compound 178], the IC50 on p110α/p85α (read-out: PI3K α IC50) is under 0.1 µM; on p110β/p85α (read-out: PI3K β IC50), under 0.1 µM; at p110δ/p85α (read-out: PI3K δ IC50), under 1 µM; at p110γ (read-out: PI3K γ IC50), under 1 µM.

Values taken from patent publication US11547697B2, “Heterocyclic compounds and uses thereof” (MILLENNIUM PHARMACEUTICALS, INC., priority 2009, dated 2023).
